# Results taken from patent US11071730B2, “Substituted 6-azabenzimidazole compounds” (Gilead Sciences, Inc., priority 2018, dated 2021).
# Molecular target: human HPK1 (MAP4K1) (Homo sapiens (Human), UniProt Q92918)
# Assay: HPK1 IC50 Assay (TR-FRET biochemical kinase assay, STK S1 peptide substrate)
# Conditions: recombinant human HPK1 kinase domain 0.15 nM, 10 μM ATP, 1 μM STK S1 peptide; geometric mean
# How it was run: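 Pre-activated recombinant kinase domain (insect cells; 0.15 nM) pre-incubated with compounds for 15 min, then 10 μM ATP and 1 μM STK S1 peptide added for 3 h at 25 °C in BES pH 7.0. Phosphorylation read by HTRF (665/620 nm). IC50 from four-parameter fits normalized to staurosporine/DMSO controls, geometric mean of repeats.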
# human HPK1 (MAP4K1), sequence (Q92918 17-274): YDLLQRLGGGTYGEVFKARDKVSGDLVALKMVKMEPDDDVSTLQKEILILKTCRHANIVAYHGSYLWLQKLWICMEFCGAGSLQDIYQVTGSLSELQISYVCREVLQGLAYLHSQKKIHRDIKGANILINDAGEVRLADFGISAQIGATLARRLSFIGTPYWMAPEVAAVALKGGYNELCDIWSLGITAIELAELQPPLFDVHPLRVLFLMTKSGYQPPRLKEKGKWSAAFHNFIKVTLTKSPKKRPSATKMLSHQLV
row,Compound,IC50
1,CCn1cnc2cc(-c3ccc4c(c3)N([C@H]3C[C@@H](N5CCCCC5)C3)C(=O)C43CCN(C4COC4)CC3)nc(Nc3ccncc3F)c21 [Example 175],0.8 nM
2,CC(=O)N1CCC2(CC1)C(=O)N([C@H]1C[C@@H](N3C4CCCC3CC4)C1)c1cc(-c3cc4ncn(C(C)C)c4c(Nc4ccncc4F)n3)ccc12 [Example 186],0.3 nM

# Second part, the compound after the results:
row,IC50,Compound
1,1.3 nM,CC(=O)N1CCC2(CC1)C(=O)N([C@H]1C[C@@H](N3CC4CC4C3)C1)c1cc(-c3cc4ncn(C(C)C)c4c(Nc4ccncc4F)n3)ccc12 (stereo partly drawn) [Example 180]
2,0.2 nM,CC(C)[C@@H](O)C(=O)N1CCC2(CC1)C(=O)N([C@H]1C[C@@H](N3CCC(C)(C)C3)C1)c1cc(-c3cc4ncn(C(C)C)c4c(Nc4ccncc4F)n3)ccc12 [Example 118]
3,0.1 nM,CC(C)n1cnc2cc(-c3ccc4c(c3)N([C@H]3C[C@@H](N5CC6CCC(C6)C5)C3)C(=O)C43CCN(C(=O)C4(C)COC4)CC3)nc(Nc3ccncc3F)c21 [Example 123]
4,0.8 nM,CCn1cnc2cc(-c3ccc4c(c3)N([C@H]3C[C@@H](N5CCCCC5)C3)C(=O)C43CCN(C(=O)C(C)(C)C)CC3)nc(Nc3ccncc3F)c21 [Example 169]
5,9.6 nM,"CNC(=O)c1cc(Nc2nc(-c3ccc4c(c3)N([C@H]3C[C@@H](N5CCCCC5)C3)C(=O)C4(C)C)cc3ncn(C(C)C)c23)ncc1C [Example 194, 2-((6-(3,3-dimethyl-2-oxo-1-((1s,3s)-3-(piperidin-1-yl)cyclobutyl)indolin-6-yl)-3-isopropyl-3H-imidazo[4,5-c]pyridin-4-yl)amino)-N,5-dimethylisonicotinamide]"
6,0.5 nM,CC(C)n1cnc2cc(-c3ccc4c(c3)N([C@H]3C[C@@H](N5CCCCC5)C3)C(=O)C43CCN(C(=O)C(C)(C)CF)CC3)nc(Nc3ccncc3F)c21 [Example 139]
7,0.4 nM,CC(C)n1cnc2cc(-c3ccc4c(c3)N([C@H]3C[C@@H](N5CCC(C)(C)C5)C3)C(=O)C43CCN(C(=O)C4(CO)CC4)CC3)nc(Nc3ccncc3F)c21 [Example 135]
8,0.2 nM,CC(C)n1cnc2cc(-c3ccc4c(c3)N([C@H]3C[C@@H](N5CCCC(C)(C)C5)C3)C(=O)C43CCN(C(=O)C4CCO4)CC3)nc(Nc3ccncc3F)c21 (stereo partly drawn) [Example 108]
9,0.4 nM,CC(C)n1cnc2cc(-c3ccc4c(c3)N([C@H]3C[C@@H](N5CCC(C)(C)C5)C3)C(=O)C43CCN(C(=O)c4ncon4)CC3)nc(Nc3ccncc3F)c21 [Example 160]
10,0.2 nM,CC(C)n1cnc2cc(-c3ccc4c(c3)N([C@H]3C[C@@H](N5CCCC6(CC6)C5)C3)C(=O)C43CCN(C(=O)CO)CC3)nc(Nc3ccncc3F)c21 [Example 121]
11,0.1 nM,CC(C)n1cnc2cc(-c3ccc4c(c3)N([C@H]3C[C@@H](N5CC6CCC(C6)C5)C3)C(=O)C43CCN(C(=O)[C@@H](C)O)CC3)nc(Nc3ccncc3F)c21 [Example 126]
12,0.5 nM,CC(C)n1cnc2cc(-c3ccc4c(c3)N([C@H]3C[C@@H](N5CCCCC5)C3)C(=O)C43CCN(C(=O)C4(F)CC4)CC3)nc(Nc3ccncc3F)c21 [Example 150]
13,0.3 nM,CC(C)n1cnc2cc(-c3ccc4c(c3)N([C@H]3C[C@@H](N5CCCCC5)C3)C(=O)C43CCN(C(=O)C4(CO)CC4)CC3)nc(Nc3ccncc3F)c21 [Example 134]
14,0.4 nM,COC(C)(C)C(=O)N1CCC2(CC1)C(=O)N([C@H]1C[C@@H](N3CCCCC3)C1)c1cc(-c3cc4ncn(C(C)C)c4c(Nc4ccncc4F)n3)ccc12 [Example 145]
15,0.4 nM,"CCC(=O)N1CCC2(CC1)C(=O)N([C@H]1C[C@@H](N3CCCCC3)C1)c1cc(-c3cc4ncn(C(C)C)c4c(Nc4ccncc4F)n3)ccc12 [Example 167, 6-(4-((3-fluoropyridin-4-yl)amino)-3-isopropyl-3H-imidazo[4,5-c]pyridin-6-yl)-1-((1s,3s)-3-(piperidin-1-yl)cyclobutyl)-1′-propionylspiro[indoline-3,4′-piperidin]-2-one]"

# Same assay, conditions: recombinant human HPK1 kinase domain 0.15 nM, 10 μM ATP, 1 μM STK S1 peptide; geometric mean of multiple experiments
row,Compound,IC50
1,"CC(C)n1cnc2cc(-c3ccc4c(c3)N([C@H]3C[C@@H](N5CCCCC5)C3)C(=O)C43CCN(C(=O)C4(C)CCOCC4)CC3)nc(Nc3ccncc3F)c21 [Example 1, 6-(4-((3-fluoropyridin-4-yl)amino)-3-isopropyl-3H-imidazo[4,5-c]pyridin-6-yl)-1′-(4-methyltetrahydro-2H-pyran-4-carbonyl)-1-((1s,3s)-3-(piperidin-1-yl)cyclobutyl)spiro[indoline-3,4′-piperidin]-2-one]",0.6 nM
2,CC(C)n1cnc2cc(-c3ccc4c(c3)N([C@H]3C[C@@H](N5CCCCC5)C3)C(=O)C43CCN(C4COC4)CC3)nc(Nc3cc(F)ncc3F)c21 [Example 92],1.9 nM
3,CC(C)n1cnc2cc(-c3ccc4c(c3)N([C@H]3C[C@@H](N5CC[C@@H](C)C5)C3)C(=O)C43CCN(C4COC4)CC3)nc(Nc3ccncc3F)c21 [Example 44],1.1 nM
4,CC(C)n1cnc2cc(-c3ccc4c(c3)N([C@H]3C[C@@H](N5CCC(C)(C)C5)C3)C(=O)C43CCN(C(=O)[C@H]4CCCO4)CC3)nc(Nc3ccncc3F)c21 [Example 14],0.2 nM
5,"CC(C)n1cnc2cc(-c3ccc4c(c3)N([C@H]3C[C@@H](N5CCCCC5)C3)C(=O)C4(C)O)nc(Nc3ccncc3F)c21 (stereo partly drawn) [Example 55, 6-(4-((3-fluoropyridin-4-yl)amino)-3-isopropyl-3H-imidazo[4,5-c]pyridin-6-yl)-3-hydroxy-3-methyl-1-((1s,3s)-3-(piperidin-1-yl)cyclobutyl)indolin-2-one]",0.9 nM
6,CC(C)n1cnc2cc(-c3ccc4c(c3)N([C@H]3C[C@@H](N5CC(C)(C)C[C@H]5CO)C3)C(=O)C43CCN(C4COC4)CC3)nc(Nc3ccncc3F)c21 [Example 38],1.4 nM
7,"CC(C)n1cnc2cc(-c3ccc4c(c3)N([C@H]3C[C@@H](N5CCC(C)(C)C5)C3)C(=O)C43CCN(C(=O)[C@@H]4OCC[C@@H]4C)CC3)nc(Nc3ccncc3F)c21 [Example 19A, 1-((1s,3S)-3-(3,3-dimethylpyrrolidin-1-yl)cyclobutyl)-6-(4-((3-fluoropyridin-4-yl)amino)-3-isopropyl-3H-imidazo[4,5-c]pyridin-6-yl)-1′-((2R,3S)-3-methyltetrahydrofuran-2-carbonyl)spiro[indoline-3,4′-piperidin]-2-one]",0.2 nM
8,CC(C)n1cnc2cc(-c3ccc4c(c3)N([C@H]3C[C@@H](N5CCCC6(CC6)C5)C3)C(=O)C43CCN(C(=O)[C@@H](C)O)CC3)nc(Nc3ccncc3F)c21 [Example 36],0.3 nM
9,COC(=O)N1CCC2(CC1)C(=O)N([C@H]1C[C@@H](N3CCCCC3)C1)c1cc(-c3cc4ncn(C(C)C)c4c(Nc4ccncc4F)n3)ccc12 [Example 30],0.6 nM
10,CC(C)n1cnc2cc(-c3ccc4c(c3)N([C@H]3C[C@@H](NCC(C)(C)F)C3)C(=O)C4(C)C)nc(Nc3ccncc3F)c21 [Example 64],1.3 nM
11,CC(C)n1cnc2cc(-c3ccc4c(c3)N([C@H]3C[C@@H](N5CCCC(C)(F)C5)C3)C(=O)C43CCN(C4COC4)CC3)nc(Nc3ccncc3F)c21 (stereo partly drawn) [Example 80],0.4 nM
12,CC(C)n1cnc2cc(-c3ccc4c(c3)N([C@H]3C[C@@H](N5CC[C@H](C)C5)C3)C(=O)C43CCN(C4COC4)CC3)nc(Nc3ccncc3F)c21 [Example 47],1.6 nM
13,CC(C)n1cnc2cc(-c3ccc4c(c3)N([C@H]3C[C@@H](N5C6CCC5COC6)C3)C(=O)C43CCN(C4COC4)CC3)nc(Nc3ccncc3F)c21 [Example 50],0.5 nM
14,"CC(C)n1cnc2cc(-c3ccc4c(c3)N([C@H]3C[C@@H](N5CCC(C)(C)C5)C3)C(=O)C43CCN(C(=O)[C@H]4CCO4)CC3)nc(Nc3ccncc3F)c21 (single isomer, unassigned) [Example 78B, 1-((1s,3s)-3-(3,3-dimethylpyrrolidin-1-yl)cyclobutyl)-6-(4-((3-fluoropyridin-4-yl)amino)-3-isopropyl-3H-imidazo[4,5-c]pyridin-6-yl)-1′-(oxetane-2-carbonyl)spiro[indoline-3,4′-piperidin]-2-one]",0.3 nM
15,"CC(C)n1cnc2cc(-c3ccc4c(c3)N([C@H]3C[C@@H](N5CCCCC5)C3)C(=O)C43CCN(C4COC4)CC3)nc(Nc3ccnc(F)c3F)c21 [Example 91, 6-(4-((2,3-difluoropyridin-4-yl)amino)-3-isopropyl-3H-imidazo[4,5-c]pyridin-6-yl)-1′-(oxetan-3-yl)-1-((1s,3s)-3-(piperidin-1-yl)cyclobutyl)spiro[indoline-3,4′-piperidin]-2-one]",0.2 nM
16,CC(C)n1cnc2cc(-c3ccc4c(c3)N([C@H]3C[C@@H](N5C[C@@H](C)[C@@H](C)C5)C3)C(=O)C43CCN(C(=O)C4(C)COC4)CC3)nc(Nc3ccncc3F)c21 [Example 8],0.2 nM
17,CC(C)n1cnc2cc(-c3ccc4c(c3)N([C@H]3C[C@@H](N5C[C@@H](O)C(C)(C)C5)C3)C(=O)C43CCN(C4COC4)CC3)nc(Nc3ccncc3F)c21 [Example 40],0.6 nM

# The next lines start with the values.
row,IC50,Compound
1,5.6 nM,CC(=O)N1CCC2(CC1)C(=O)N([C@H]1C[C@@H](N3CCCCC3)C1)c1cc(-c3cc4ncn(C(C)C)c4c(Nc4ncc(F)cc4F)n3)ccc12 [Example 69]
2,0.8 nM,CC(C)n1cnc2cc(-c3ccc4c(c3)N([C@H]3C[C@@H](N5CCCCC5)C3)C(=O)C4(C)C)nc(Nc3ccncc3F)c21 [Example 83]
3,0.5 nM,"CC(=O)N1CCC2(CC1)C(=O)N([C@H]1C[C@@H](N3CCCCC3)C1)c1cc(-c3cc4ncn(C(C)C)c4c(Nc4ccncc4F)n3)ccc12 [Example 67, 1′-acetyl-6-(4-((3-fluoropyridin-4-yl)amino)-3-isopropyl-3H-imidazo[4,5-c]pyridin-6-yl)-1-((1s,3s)-3-(piperidin-1-yl)cyclobutyl)spiro[indoline-3,4′-piperidin]-2-one]"
4,0.1 nM,CC(C)n1cnc2cc(-c3ccc4c(c3)N([C@H]3C[C@@H](N5CCCCC5)C3)C(=O)C43CCN(C(=O)[C@@H](C)O)CC3)nc(Nc3ccc(F)nc3F)c21 [Example 68]
5,0.3 nM,CC(C)n1cnc2cc(-c3ccc4c(c3)N([C@H]3C[C@@H](N5CCCCC5)C3)C(=O)C4(C)C)nc(Nc3ccnc(F)c3F)c21 [Example 94]
